How the values were obtained:
[1] = Urinary excretion of phenolic metabolites after intake of the GCPE nutraceutical; settings: for Cumulative urinary excretion, Total 0–24 h: urine, mean ± SEM, n = 9
[2] = Plasma pharmacokinetics of phenolic metabolites after intake of the GCPE nutraceutical (LC-MS-QToF); settings: for Cmax: mean ± SEM, n = 9
[3] = Fecal excretion of phenolic metabolites after intake of the GCPE nutraceutical; settings: feces
Experimental: Participants attended the Human Nutrition Unit (HNU) at the Institute of Food Science, Technology and Nutrition (ICTAN-CSIC) on two consecutive days at the beginning of the intervention (week 0) and also on two consecutive days at the end of the study, after consuming daily two doses of the GCPE nutraceutical, providing 600 mg/d phenols, during two months (week 8). […] A licensed health care professional placed an intravenous catheter in the subjects′ nondominant arm and collected a fasting blood sample (baseline, 0 h). Then, subjects drank the soluble GCPE nutraceutical dissolved in 200 mL of water. […] On the sampling days, volunteers remained at the HNU, where a (poly)phenol-free diet was provided. Half an hour after consuming the nutraceutical, volunteers ate a breakfast consisting of ham, cheese, white bread, and a yogurt. Lunch (paella, bread, and yogurt) and an afternoon snack (muffin and yogurt) were eaten 5 and 9 h, respectively, after consuming the nutraceutical. Water and isotonic beverages were freely available. […] The same protocol was followed during visits at the end of the 8-week intervention. On each occasion, two days before each visit to the HNU, subjects consumed a low (poly)phenol diet free of foods containing hydroxycinnamates such as coffee, herbal teas, red wine, artichokes, whole grain cereals, vegetables, fruits and fruit juices, and dried fruits. Only banana, watermelon, cantaloupes, and potatoes were allowed.
Blood samples were immediately centrifuged (10 min, 3000 rpm, 4 °C) to obtain plasma. […] All biological samples were stored at −80 °C until analysis.
To extract plasma metabolites, 10 µL of 50% (v/v) aqueous formic acid, and 900 µL cold acetonitrile containing 50 µL of 10% (w/v) ascorbic acid were added to 400 µL defrosted plasma. Samples were vortexed and centrifuged (14,000 rpm, 10 min, 4 °C), repeating the extraction and combining the two supernatants, which were reduced to dryness under nitrogen [13]. Dried samples were resuspended in 150 µL of 0.1% aqueous formic acid (containing 10% acetonitrile acidified with 0.1% formic acid), centrifuged (15 min, 14,000 rpm, 4 °C), and the supernatant collected. Urine samples were diluted 1:1 with Milli-Q water and centrifuged (14,000 rpm, 20 min, 4 °C) prior to analysis. Phosphate-buffered saline (3 mL) was added to a representative 300 mg sample of thawed feces, homogenized in an ultrasound bath during 10 min, centrifuged (14,000 rpm, 20 min, 4 °C), and the supernatants collected.
Mobile phase A was 0.1% formic acid in Milli-Q water, and mobile phase B was acetonitrile containing 0.1% formic acid at a 0.3 mL/min flow rate. […] Metabolites were identified based on their retention time using authentic standards when possible. […] Urine concentration of excreted metabolites was normalized to the total volume excreted in each studied interval.
Plasma (30 µL), urine (5 µL) and fecal extracts (5 µL) were filtered through 0.45 µm
cellulose-acetate membrane filters and injected into an Agilent 1200 series LC system
ESI-Jet Stream Technology (Agilent Technologies). A reverse-phase Ascentis Express
C18 (15 cm x 3 mm, 2.7 µm) column (Sigma-Aldrich Quimica, Madrid), preceded by a
phase A was 0.1% formic acid in Milli-Q water, and mobile phase B was acetonitrile
containing 0.1% formic acid at a 0.3 mL/min flow rate. The gradient started with 10% B
at 0 min, 30% B at 10 min, 40% B at 15 min, reaching 50% B at 20 min. The starting
gradient was then re-established in 2 min and maintained for 8 min to re-equilibrate the

[4] = week 0, GCPE nutraceutical with 300 mg hydroxycinnamic acids
[5] = week 0, first peak where biphasic
[6] = week 8, GCPE nutraceutical with 300 mg hydroxycinnamic acids
[7] = week 8, first peak where biphasic
[8] = week 8, listed as 3′-hydroxyphenylacetic acid

Row | SMILES | Cumulative urinary excretion, Total 0–24 h ([1]; week 0) | Cumulative urinary excretion, Total 0–24 h ([1]; week 8) | Amount excreted in urine, 0- 3 h ([1]; week 0, interval 0–3 h) | Amount excreted in urine, 3-6 h ([1]; week 0, interval 3–6 h) | Amount excreted in urine, 6-9 h ([1]; week 0, interval 6–9 h) | Amount excreted in urine, 9-11 h ([1]; week 0, interval 9–11 h) | Amount excreted in urine, 11-24 h ([1]; week 0, interval 11–24 h) | Amount excreted in urine, 0- 3 h ([1]; week 8, interval 0–3 h) | Amount excreted in urine, 3-6 h ([1]; week 8, interval 3–6 h) | Amount excreted in urine, 6-9 h ([1]; week 8, interval 6–9 h) | Amount excreted in urine, 9-11 h ([1]; week 8, interval 9–11 h) | Amount excreted in urine, 11-24 h ([1]; week 8, interval 11–24 h) | AUC0–24h ([2]; week 0) | Cmax [2, 4] | Tmax (h) or Range [2, 5] | AUC0–24h ([2]; week 8) | Cmax [2, 6] | Tmax (h) or Range [2, 7] | Amount of fecal metabolite excreted at 0 h ([3]; week 0, mean ± SEM, n = 9) | Amount of fecal metabolite excreted at 0 h ([3]; week 8) | other results
1 | O=C(O)Cc1cccc(O)c1 [3′-Hydroxyphenylacetic acid] | 12 ± 3 µmol | 9 ± 2 µmol | 1.6 ± 0.5 µmol | 1 ± 0.2 µmol | 0.8 ± 0.2 µmol | 0.53 ± 0.09 µmol | 2.5 ± 0.7 µmol | 1 ± 0.2 µmol | 0.7 ± 0.2 µmol | 0.7 ± 0.1 µmol | 0.6 ± 0.2 µmol | 1.8 ± 0.6 µmol | 2.6 ± 0.9 µM/min | 200 ± 70 nM | 8 ± 2 h | 1.6 ± 0.6 µM/min | 150 ± 50 nM | 5 ± 1 h | 0.31 ± 0.09 µmol/g | 0.18 ± 0.08 µmol/g | Amount excreted in urine, TOTAL ([1]; week 0, Table S5 total): 12 ± 3 µmol; Amount of fecal metabolite excreted at 0 h ([3]; week 0, mean ± SEM, n = 9, listed as 3′-hydroxyphenylacetic acid): 0.31 µmol/g; Amount of fecal metabolite excreted at 0 h [3, 8]: 0.18 µmol/g; Amount of fecal metabolite excreted at 24 h ([3]; week 0): 0.21 ± 0.08 µmol/g; Amount of fecal metabolite excreted at 24 h ([3]; week 0, listed as 3′-hydroxyphenylacetic acid): 0.21 µmol/g; Amount of fecal metabolite excreted at 24 h ([3]; week 8): 0.11 ± 0.04 µmol/g; Amount of fecal metabolite excreted at 24 h [3, 8]: 0.11 µmol/g
2 | COc1cc(CC(=O)O)ccc1O [4′-Hydroxy-3′-methoxyphenylacetic acid] | 13.2 ± 0.9 µmol | 12 ± 1 µmol | 1.3 ± 0.2 µmol | 0.9 ± 0.2 µmol | 0.9 ± 0.2 µmol | 0.7 ± 0.1 µmol | 3.6 ± 0.3 µmol | 1.5 ± 0.2 µmol | 0.8 ± 0.1 µmol | 1 ± 0.2 µmol | 0.68 ± 0.15 µmol | 2.9 ± 0.7 µmol | 1.4 ± 0.9 µM/min | 140 ± 60 nM | 7 ± 4 h | 1.5 ± 0.8 µM/min | 120 ± 50 nM | 4 ± 3 h | 0.007 ± 0.005 µmol/g | 0.0006 ± 0.0006 µmol/g | Amount of fecal metabolite excreted at 24 h ([3]; week 0): 0.02 ± 0.01 µmol/g; Amount of fecal metabolite excreted at 24 h ([3]; week 8): 0.003 ± 0.003 µmol/g

Reference: article PMC9230201, “Sustained Consumption of a Decaffeinated Green Coffee Nutraceutical Has Limited Effects on Phenolic Metabolism and Bioavailability in Overweight/Obese Subjects” (Nutrients, 2022)
